From patent US20030086873A1, “Myocardial imaging agent and preparation method thereof” (priority 2001, published 2003)

Experiments:
Type in all cases: in vivo
[1] = Dynamic SPECT imaging and biological distribution in dogs after intravenous injection; conditions: for Heart biological distribution / Kidneys biological distribution / Liver biological distribution / Lungs biological distribution: i.v.
Experimental: (§1) Dogs were intravenously injected with [^99mTc(CO)3(MIBI)3]^+ or [^99mTc(MIBI)6][…]at dose of […]. Immediately following injection, dynamic photography for up to 120 min was performed using a Toshiba GCA 7200A two-probe SPECT and a low energy parallel aperture regular collimator. Time—radioactivity curves were also collected for the heart, liver, lungs, and kidneys. Target/non-target radioactivity ratios were calculated, and fall body imaging was performed separately at different times. The biological distributions of the imaging agents in the body were analyzed. Vein blood samples were collected separately at different times, and the dynamics of the blood clearance was analyzed. Flat myocardial imaging was conducted separately at different times, with myocardial tomographic imaging at 120 minutes post injection.

[2] = Biological distribution in the bodies of Kunming mice after caudal vein injection
Experimental: The complexes [^99mTc(CO)3(OH2)3]^+ and [^99mTc(CO)3(MIBI)3]^+ prepared in Example 1 were separately injected in the caudal vein of Kunming mice. The experiment was conducted on three mice within each time period, and the injection's activity was 925 KBq. The radioactivity of individual organs's tissue was measured at 5, 15, 30, and 60 minutes after the injection, and the results are represented by radioactive uptake rate per gram of tissue.
The results of the distribution of [^99mTc(CO)3(OH2)3]^+ in the mice's bodies are included in Tables 2; the results for [^99mTc(CO)3(MIBI)3]^+ are presented in Table 3. The value “% ID/g” is the percentage of the injection's total radioactivity that each gram of tissue accounts for i.e., the radioactive uptake rate per gram of tissue, with ID standing for “injected dose.”

[3] = Blood clearance kinetics in dogs (vein blood samples); conditions: intravenous administration, secondary model
Experimental: as §1

## COC(C)(C)CN=[C]=[99Tc+](=[C]=O)(=[C]=O)(=[C]=O)(=[C]=NCC(C)(C)OC)=[C]=NCC(C)(C)OC [[^99mTc(CO)3(MIBI)3]^+]
[1]; 2 Minutes
  Target/Non-Target Uptake Ratio Heart/Kidneys: 0.56 ± 0.13
  Target/Non-Target Uptake Ratio Heart/Liver: 1 ± 0.18
  Target/Non-Target Uptake Ratio Heart/Lungs: 2.51 ± 0.25
[1]; 5 Minutes
  Target/Non-Target Uptake Ratio Heart/Kidneys: 0.53 ± 0.12
  Target/Non-Target Uptake Ratio Heart/Liver: 0.98 ± 0.11
  Target/Non-Target Uptake Ratio Heart/Lungs: 2.67 ± 0.27
[1]; 10 Minutes
  Target/Non-Target Uptake Ratio Heart/Kidneys: 0.53 ± 0.1
  Target/Non-Target Uptake Ratio Heart/Liver: 0.92 ± 0.13
  Target/Non-Target Uptake Ratio Heart/Lungs: 2.6 ± 0.26
  Heart biological distribution: 3.80 ± 0.44 % ID/g
  Kidneys biological distribution: 15.33 ± 0.75 % ID/g
  Liver biological distribution: 12.93 ± 0.70 % ID/g
  Lungs biological distribution: 5.13 ± 0.06 % ID/g
[1]; 20 Minutes
  Target/Non-Target Uptake Ratio Heart/Kidneys: 0.59 ± 0.1
  Target/Non-Target Uptake Ratio Heart/Liver: 0.97 ± 0.1
  Target/Non-Target Uptake Ratio Heart/Lungs: 2.8 ± 0.44
  Heart biological distribution: 3.97 ± 0.50 % ID/g
  Kidneys biological distribution: 14.70 ± 1.14 % ID/g
  Liver biological distribution: 14.00 ± 1.78 % ID/g
  Lungs biological distribution: 4.70 ± 0.20 % ID/g
[1]; 30 Minutes
  Target/Non-Target Uptake Ratio Heart/Kidneys: 0.62 ± 0.15
  Target/Non-Target Uptake Ratio Heart/Liver: 1.02 ± 0.11
  Target/Non-Target Uptake Ratio Heart/Lungs: 2.96 ± 0.43
  Heart biological distribution: 4.00 ± 0.30 % ID/g
  Kidneys biological distribution: 14.53 ± 1.86 % ID/g
  Liver biological distribution: 14.27 ± 1.97 % ID/g
  Lungs biological distribution: 4.70 ± 0.26 % ID/g
[1]; 40 Minutes
  Target/Non-Target Uptake Ratio Heart/Kidneys: 0.58 ± 0.08
  Target/Non-Target Uptake Ratio Heart/Liver: 1.06 ± 0.17
  Target/Non-Target Uptake Ratio Heart/Lungs: 3 ± 0.51
  Heart biological distribution: 3.73 ± 0.51 % ID/g
  Kidneys biological distribution: 13.27 ± 1.65 % ID/g
  Liver biological distribution: 16.37 ± 2.47 % ID/g
  Lungs biological distribution: 4.80 ± 0.72 % ID/g
[1]; 60 Minutes
  Target/Non-Target Uptake Ratio Heart/Kidneys: 0.6 ± 0.06
  Target/Non-Target Uptake Ratio Heart/Liver: 1.22 ± 0.2
  Target/Non-Target Uptake Ratio Heart/Lungs: 3.05 ± 0.52
  Heart biological distribution: 3.63 ± 0.49 % ID/g
  Kidneys biological distribution: 12.23 ± 1.00 % ID/g
  Liver biological distribution: 17.53 ± 2.85 % ID/g
  Lungs biological distribution: 4.40 ± 0.44 % ID/g
[1]; 90 Minutes
  Target/Non-Target Uptake Ratio Heart/Kidneys: 0.6 ± 0.06
  Target/Non-Target Uptake Ratio Heart/Liver: 1.25 ± 0.33
  Target/Non-Target Uptake Ratio Heart/Lungs: 3.1 ± 0.49
  Heart biological distribution: 3.77 ± 0.64 % ID/g
  Kidneys biological distribution: 12.37 ± 1.75 % ID/g
  Liver biological distribution: 19.67 ± 3.72 % ID/g
  Lungs biological distribution: 4.20 ± 0.26 % ID/g
[1]; 120 Minutes
  Target/Non-Target Uptake Ratio Heart/Kidneys: 0.63 ± 0.04
  Target/Non-Target Uptake Ratio Heart/Liver: 1.37 ± 0.26
  Target/Non-Target Uptake Ratio Heart/Lungs: 3.09 ± 0.56
  Heart biological distribution: 3.73 ± 0.58 % ID/g
  Kidneys biological distribution: 12.40 ± 3.48 % ID/g
  Liver biological distribution: 21.03 ± 2.78 % ID/g
  Lungs biological distribution: 4.07 ± 0.15 % ID/g
[1]; imaging, in words
  Radioactivity in the liver compared with [^99mTc(MIBI)6]^+: clearly lower
[1]; in words
  Liver time-radioactivity curve relative to the myocardial curve: lower than the myocardial curve
[2]; 5 Minutes
  Target/Non-Target Uptake Ratio Heart/Blood: 20.99
  Target/Non-Target Uptake Ratio Heart/Liver: 1.88
  Target/Non-Target Uptake Ratio Heart/Lungs: 3.51
[2]; 5 Minutes after injection
  Blood radioactive uptake per gram of tissue: 1.03 ± 0.21 % ID/g
  Bones radioactive uptake per gram of tissue: 3.72 ± 0.84 % ID/g
  Brain radioactive uptake per gram of tissue: 0.18 ± 0.02 % ID/g
  Heart radioactive uptake per gram of tissue: 21.62 ± 2.84 % ID/g
  Kidneys radioactive uptake per gram of tissue: 57.90 ± 1.80 % ID/g
  Liver radioactive uptake per gram of tissue: 11.48 ± 0.88 % ID/g
  Lungs radioactive uptake per gram of tissue: 6.16 ± 0.48 % ID/g
  Muscles radioactive uptake per gram of tissue: 7.08 ± 0.52 % ID/g
  Spleen radioactive uptake per gram of tissue: 6.26 ± 1.29 % ID/g
[2]; 15 Minutes
  Target/Non-Target Uptake Ratio Heart/Blood: 64.47
  Target/Non-Target Uptake Ratio Heart/Liver: 2.49
  Target/Non-Target Uptake Ratio Heart/Lungs: 4.98
[2]; 15 Minutes after injection
  Blood radioactive uptake per gram of tissue: 0.32 ± 0.05 % ID/g
  Bones radioactive uptake per gram of tissue: 2.10 ± 0.10 % ID/g
  Brain radioactive uptake per gram of tissue: 0.18 ± 0.02 % ID/g
  Heart radioactive uptake per gram of tissue: 20.63 ± 3.89 % ID/g
  Kidneys radioactive uptake per gram of tissue: 33.66 ± 0.42 % ID/g
  Liver radioactive uptake per gram of tissue: 8.28 ± 0.90 % ID/g
  Lungs radioactive uptake per gram of tissue: 4.14 ± 0.90 % ID/g
  Muscles radioactive uptake per gram of tissue: 3.78 ± 0.88 % ID/g
  Spleen radioactive uptake per gram of tissue: 3.84 ± 0.90 % ID/g
[2]; 30 Minutes
  Target/Non-Target Uptake Ratio Heart/Blood: 86.54
  Target/Non-Target Uptake Ratio Heart/Liver: 3.23
  Target/Non-Target Uptake Ratio Heart/Lungs: 5.34
[2]; 30 Minutes after injection
  Blood radioactive uptake per gram of tissue: 0.24 ± 0.07 % ID/g
  Bones radioactive uptake per gram of tissue: 1.94 ± 0.29 % ID/g
  Brain radioactive uptake per gram of tissue: 0.12 ± 0.01 % ID/g
  Heart radioactive uptake per gram of tissue: 20.77 ± 1.60 % ID/g
  Kidneys radioactive uptake per gram of tissue: 23.94 ± 2.11 % ID/g
  Liver radioactive uptake per gram of tissue: 6.44 ± 1.03 % ID/g
  Lungs radioactive uptake per gram of tissue: 3.89 ± 0.54 % ID/g
  Muscles radioactive uptake per gram of tissue: 6.14 ± 0.78 % ID/g
  Spleen radioactive uptake per gram of tissue: 2.84 ± 0.41 % ID/g
[2]; 60 Minutes
  Target/Non-Target Uptake Ratio Heart/Blood: 149.15
  Target/Non-Target Uptake Ratio Heart/Liver: 4.13
  Target/Non-Target Uptake Ratio Heart/Lungs: 6.06
[2]; 60 Minutes after injection
  Blood radioactive uptake per gram of tissue: 0.13 ± 0.04 % ID/g
  Bones radioactive uptake per gram of tissue: 1.42 ± 0.31 % ID/g
  Brain radioactive uptake per gram of tissue: 0.08 ± 0.01 % ID/g
  Heart radioactive uptake per gram of tissue: 19.39 ± 0.91 % ID/g
  Kidneys radioactive uptake per gram of tissue: 11.30 ± 0.73 % ID/g
  Liver radioactive uptake per gram of tissue: 4.69 ± 0.34 % ID/g
  Lungs radioactive uptake per gram of tissue: 3.20 ± 0.85 % ID/g
  Muscles radioactive uptake per gram of tissue: 4.42 ± 0.36 % ID/g
  Spleen radioactive uptake per gram of tissue: 1.62 ± 0.32 % ID/g
[2]; in words
  Concentration in livers: comparatively low
  Specific concentration in tissues / heart: apparent concentration
  heart:blood ratio compared with [^99mTc(MIBI)6]^+: comparable
  heart:liver ratio compared with [^99mTc(MIBI)6]^+: higher
[2]; within 60 minutes, in words
  Radioactive retention: good radioactive retention
[3]
  CL (blood clearance): 401.33 ± 73.51 mL/h
  T(α)⅓ of blood clearance curve: 1.33 ± 0.12 min
  T(β)½ of blood clearance curve: 102.33 ± 25.58 min
